Entries after “also recorded” stand apart in the source; their conditions may differ. Residues, ends and D or L forms follow the SMILES beside them. *: point of attachment. Cbz = O=C(OCc1ccccc1)*
Legend:
Format in all cases: cell-based, human
POU5F1B [1] = test: Radiolabelling pulse-chase experiment to determine POU5F1B half-life; conditions: POU5F1B-overexpressing SW480 cells; ROCK inhibitors 20 μM 24 hours; MG132 10 μM 3 hours
Description: Radiolabelling experiment to determine POU5F1B half-life. POU5F1B-overexpressing SW480 cells treated for 24 hours with capivasertib (20 μM), oxa-06 (20 μM) and Y-27632 (20 μM) ROCK inhibitors, and 3 hours with MG132 (10 μM) proteasome inhibitor, were washed with methionine/cysteine-free medium, incubated for a 20-min pulse at 37° C. with 50 μCi/ml [35S]methionine/cysteine (Hartman Analytics), washed, and further incubated for different times at 37° C. in complete medium with a 10-fold excess of nonradioactive methionine and cysteine. POU5F1B protein was HA-immunoprecipitated, eluted and loaded in SDS-PAGE gels, and autoradiographies were quantified using the Typhoon Imager (Image QuantTool, GE healthcare).

POU5F1B-DCK = test: Dose response assay, BVdU survival of POU5F1B-DCK-overexpressing SW480 cells (POU5F1B-DCK degradation); conditions: 0.39-25 μM compound, 500 μM BVdU, reading at 96 h and 120 h
Description: Dose response assays. POU5F1B-DCK-, DCK-overexpressing, and wild type SW480 cells were seeded in 96-well plates at a cell density of 2,000 cells/well in 100 μl of media. At the same time of cell seeding, 100 μM Capivasertib, OXA-06 and Laurocapram dissolved in DMSO were diluted in medium and 20 μl were dispensed in the 96-wells to achieve final concentrations of 0.39, 0.78, 1.56, 3.12, 6.25, 12.5 and 25 μM, keeping the final concentration of DMSO at 0.2% in each well. The next day, 500 μM BVdU (Brivudine H27853, Thermo Fisher) was added in all wells except for non-treated ones. Plate reading was done at 96 h and 120 h post BvDU treatment by measuring fluorescence after incubating the cells with PrestoBlue™ (A13262, Invitrogen) for 30 min.

POU5F1B [2] = test: Immunoprecipitation of HA-tagged POU5F1B followed by Western blot with phosphoserine-specific antibody; conditions: HA-tagged POU5F1B overexpressed in SW480 cells
Description: Immunoprecipitation. Cells were washed three times PBS, lysed 30 min at 4° C. in the following Buffer (0.5% Nonidet P-40, 500 mM Tris pH 7.4, 20 mM EDTA, 10 mM NaF, 2 mM benzamidin and protease inhibitor cocktail (Roche)), and centrifuged 3 min at 5000 rpm. Supernatants were subjected to preclearing with mouse IgG-agarose beads (Sigma A0919) prior immunoprecipitation reaction. Supernatants were incubated overnight with anti HA-agarose beads (Sigma A2095). Similar elution volumes and protein quantities, for the IPs and the inputs, respectively, were submitted to SDS-PAGE and analyzed by immunoblotting using anti-ubiquitin […] (Santa Cruz Biotechnology sc-8017, 1:1,000), HRP-conjugated anti-HA (clone 3F10 Roche 12013819001, 1:1,000), anti-phosphoserine ([…], Sigma) and HRP-conjugated anti-mouse antibody.

POU5F1B [3] = test: Immunofluorescence of HA-tagged POU5F1B localization in SW480 cells; conditions: TAK-243 at 1 μM for 5 hours
Description: Immunofluorescence. Cell lines were plated on glass coverslips into 24-well plates and cultured for 3 days up to 70% confluence in 500 ng ml^−1 doxycycline-containing medium. When needed, cells were treated with TAK-243, inhibitor of the ubiquitin activating enzyme, at 1 μM for 5 hours. Growth medium was refreshed (1 ml) prior a 15 min fixation with 1 ml 8% paraformaldehyde (PFA) added dropwise. Cells were washed three times with PBS, permeabilized with 0.1% saponin PBS for 20 min, and blocked with 1% BSA 0.1% saponin PBS for 30 min before incubation with anti-HA (bioLegend, Covance catalog #MMS-101P, 1:1,000) antibody in 1% BSA 0.1% saponin PBS 2 h at room temperature (RT) under agitation. Samples were washed three times with PBS and incubated with Alexa 647-conjugated (A647) anti-mouse antibody (1:1,000) in 1% BSA 0.1% saponin PBS for 40 min at RT. Three final washes were performed before mounting the slides in Vectashield with DAPI (Vector Laboratories). Images were acquired on a ZEISS LSM 700 confocal microscopy and analyzed with Fiji software.

CC(C)C[C@@H](C=O)NC(=O)[C@H](CC(C)C)NC(=O)[C@H](CC(C)C)NC(=O)OCc1ccccc1 [MG132] (Cbz-Leu-Leu-Leu-aldehyde)
half-life of POU5F1B (pulse-chase) (POU5F1B [1]): stabilized

Fc1ccccc1CNCc1ccc(-c2ccnc3[nH]ccc23)cc1 [OXA-06]
POU5F1B(-DCK) degradation, read as cell survival after BVdU treatment (POU5F1B-DCK): degraded | half-life of POU5F1B (pulse-chase) (POU5F1B [1]): reduced | wild type POU5F1B phosphoserine signal (POU5F1B [2]): decreases

NS(=O)(=O)OC[C@H]1C[C@@H](Nc2ccnc3cc(-c4cccc(SC(F)(F)F)c4)nn23)[C@H](O)[C@@H]1O [TAK-243]
POU5F1B subcellular localization (POU5F1B [3]): triggers the re-localization of POU5F1B to the nucleus; also recorded: re-localization from the cytoplasm to the nucleus

C[C@@H](N)[C@H]1CC[C@H](C(=O)Nc2ccncc2)CC1 [Y-27632]
half-life of POU5F1B (pulse-chase) (POU5F1B [1]): reduced | wild type POU5F1B phosphoserine signal (POU5F1B [2]): decreases

NC1(C(=O)N[C@@H](CCO)c2ccc(Cl)cc2)CCN(c2nc[nH]c3nccc2-3)CC1 [capivasertib]
POU5F1B(-DCK) degradation, read as cell survival after BVdU treatment (POU5F1B-DCK): degraded | half-life of POU5F1B (pulse-chase) (POU5F1B [1]): reduced | wild type POU5F1B phosphoserine signal (POU5F1B [2]): decreases

CCCCCCCCCCCCN1CCCCCC1=O [laurocapram]
POU5F1B(-DCK) degradation, read as cell survival after BVdU treatment (POU5F1B-DCK): degraded

— patent US20260216374A1, “POU5F1B INHIBITORS” (ECOLE POLYTECHNIQUE FEDERALE DE LAUSANNE (EPFL), priority 2023, published 2026)
